Columns and labels:
OT-1 CD8+ T cells = assay: Co-culture of OT-1 cells with treated MCA205-Glob-SL8-intron cells, T cell activation by flow cytometry; format: cell-based, mouse
Procedure: MCA205-Glob-SL8-intron were plated at 1×10^5 cells in 12-well plates and incubated overnight. The next day, cells were treated with different concentrations of drugs for 24 hours. After treatment, cells were harvested with trypsin, washed twice with OT-1 Media (RPMI-1640, 10% FBS, 2mM L-glutamine, 50µM of 2-mercaptoéthanol, 100 IU/mL of Penicillin G, […]), and each condition was counted with a KOVA slide and Trypan-blue. For each tested condition 2×10^5 of treatedcells were plated in a 96-wells plate. The same day, lymph nodes from an OT1 mouse (C57B1/6J TCR-transgenic CD8^+ T cells specific for Kb -OVA257-264, obtained from Charles River #642OT1) were harvested. Lymph nodes were dissociated and filtered through a 40 µm filter and red blood cells were lysed with ACK buffer. 8×10^5 OT-1 cells were added to the MCA205-Glob-SL8-intron cells (E:T ratio of 4:1) and the plate was incubated overnight at 37°C. The next day, translocation to the golgi was blocked with brefeldin A (#420601, Biolegend) for 3h before cells were stained with Zombie Aqua (#423102, Biolegend) and antibodies described in Table 2, to measure T cell activation. Samples were acquired on a Cytek Aurora (Cytek Biosciences) spectral flow cytometer and data was analysed with FlowJo (V10) software (TreeStar, Inc.). Table 2: Panel of antibodies for the study of OT-1 CD8+ T-cells activation by MCA205-Glob-SL8-intron.
In their experiments, OT-1 cells were co-incubated with MCA205 cells expressing the globin-SL8-intron construct. To assess the production of antigenic peptide substrates, they measured OT-1 cell proliferation using FACS analysis. They analyzed the expression levels of early activation markers, CD69 and CD25, which are critical for the proliferation of activated T cells. For that purpose, MCA205 cells with the globin-SL8-intron construct were exposed to varying concentrations of compound 58 for 24 hours, followed by co-incubation with OT-1 cells.
Furthermore, inventors sought to characterize the activated OT-1 cell subset induced by this treatment. To do so, they examined the expression of CD44 and CD62L (L-selectin) markers, which delineate two major subsets of OT-1 CD8+ T cells following co-culture with MCA cells treated with compound 58: effector/memory (CD44^high/CD62L^low) and central memory (CD44^high/CD62L^high) CD8+ T cell subsets.
Inventors then evaluated the effector function of OT-1 cells post-co-culture with MCA cells treated with compound 58 by examining the expression of perforin.

20S proteasome = system: T1, 20S proteasome; assay: Proteasome Activity Assay with fluorogenic AMC substrates, without REGγ; format: biochemical, human; details: 20S proteasome not in the presence of REGγ, even at high doses
T1 construct: purified 20S proteasome from human erythrocytes; purchased Biotechne E-360-050; host or cells: human erythrocytes
Procedure: Proteasome Activity Assay - The activity of the 20S and 20S-REGγ proteasomes was followed by fluorescence using the Bz-VGR-AMC (#BML-BW9375-0005, Enzo Life Sciences) substrate at 50µM for tryspin-like activity, the Suc-LLVY-AMC (#BML-P802-0005, Enzo Life Sciences) substrate at 100µM for the chemotrypsin-like activity and the Z-LLE-AMC (#BML-ZW9345-0005, Enzo Life Sciences) substrate at 100µM for the caspase-like activity. Substrates were incubated with 0,5nM of human 20S ((#E-360-050, Biotechne) and 12,5nM of human REGγ or 2nM of human REGαβ with or without compounds at different concentrations. Purified human REGγ and REGGαβ were generously provided by Julien Marcoux and Marie-Pierre Bousquet-Dubouch. Human REGγ and REGαβ were purified according to Le Feuvre et al., 2009 from plasmids kindly provided by Olivier Coux. The activity assay was performed in 96 well plates in a final volume of 80µL. Plates were read every minute for 90 minutes with a FLUOstar plate reader (BMG Labtech). To detect fluorescence, the excitation wavelength was set to 355nm and emission wavelength at 460nm. […]

[1] = MCA cells treated 24 hours, then co-culture with OT-1 cells

## Cc1ccc(N=Nc2ccc(C)cc2NC(=O)Nc2ccccc2F)cc1 [compound 58]
OT-1 CD8+ T cells; MCA205 cells treated 24 hours, then co-incubation with OT-1 cells, compared to untreated cells
  frequency of CD69+ CD25+ OT-1 T cells: increased frequency
OT-1 CD8+ T cells; [1]
  frequency of CD44^high/CD62L^low effector/memory cells: dose-dependent increase
  frequency of central memory CD44^high/CD62L^high cells: remained unchanged
  perforin expression of OT-1 cells: increased perforin expression
20S proteasome
  inhibitory effect on the three activities (trypsin-like, caspase-like, chymotrypsin-like): did not exhibit any inhibitory effect

From EP4537820A1, “COMPOUND AND COMBINATIONS COMPRISING SAID COMPOUND TO IMPROVE IMMUNE RESPONSE” (Institut Gustave-Roussy, priority 2023, dated 2025)
